Reference: patent publication US20110105510A1, “PROPHYLACTIC/AMELIORATING OR THERAPEUTIC AGENT FOR NON-ALCOHOLIC STEATOHEPATITIS” (priority 2008, published 2011)

What was measured:
NASH = settings: EPA-E of high purity, 2700 mg/day for 12 months; cited from earlier work
[1] = system: high fat and high sucrose diet taking SD rats; assay: Efficacy on high fat and high sucrose diet taking rats; assay type: in vivo, rat; settings: HF diet SD rats, four weeks, oral once a day; EPA-E 1000 mg/kg or compound 2 1 mg/kg; compared with the control group
Experimental: Four-week-old male SD rats are fed at 23° C. on a 12:12 light/dark cycle, whereupon they are permitted to take either an ordinary diet (F-1; Funabashi Farm Co., Ltd.) or a high fat and high sucrose diet (TD88137 from Harlan […]; hereafter referred to as “HF diet”) freely for four weeks. The rats are divided into five groups (each comprising 10 animals), namely, normal group (ordinary diet-loaded), control group (HF diet-loaded), EPA-E group (HF diet-loaded, plus EPA-E-administered), compound 2 group (HF diet-loaded, plus compound 2-administered), and combined application group (HF diet-loaded, plus EPA-E-administered, plus compound 2-administered). During the feeding, 1000 mg/kg of EPA-E is administered to the EPA-E group, 1 mg/kg of compound 2 to the compound 2 group, as well as 1000 mg/kg of EPA-E and 1 mg/kg of compound 2 are administered to the combined application group, with each administration being orally carried out once a day by suspending the relevant drug or drugs in a 5% aqueous solution of gum arabic. To the normal group and the control group, a 5% aqueous solution of gum arabic is orally administered once a day. After the feeding for four weeks, blood samples are collected to measure the neutrophil count and conduct biochemical assays of the plasma.

[2] = system: diabetic mice (db/db) loaded with a methionine-choline-deficient diet; assay: Efficacy on methionine-choline-deficient diet diabetic mice; assay type: in vivo, mouse; settings: MCD diet db/db mice, two weeks, oral once a day; EPA-E 1000 mg/kg or compound 1 1 mg/kg; compared with the control group
Experimental: Pharmacological actions of EPA-E and/or compound 1 on hepatic disorders and fibrosis are confirmed by using diabetic mice loaded with a methionine-choline-deficient diet (hereafter referred to as “MCD diet”), which are known for their development of NASH-like hepatic lesions. Seven-week-old male db/db mice (Charles River Japan, Inc.) are fed at 23° C. on a 12:12 light/dark cycle, whereupon they are permitted to take either an ordinary diet (F-1; Funabashi Farm Co., Ltd.) or a MCD diet (Dyets, Inc.) freely for two weeks. The mice are divided into five groups (each comprising 20 animals), namely, normal group (ordinary diet-loaded), control group (MCD diet-loaded), EPA-E group (MCD diet-loaded, plus EPA-E-administered), compound 1 group (MCD diet-loaded, plus compound 1-administered), and combined application group (MCD diet-loaded, plus EPA-E-administered, plus compound 1-administered). During the feeding, 1000 mg/kg of EPA-E is administered to the EPA-E group, 1 mg/kg of compound 1 to the compound 1 group, as well as 1000 mg/kg of EPA-E and 1 mg/kg of compound 1 are administered to the combined application group, with each administration being orally carried out once a day by suspending the relevant drug or drugs in a 5% aqueous solution of gum arabic. To the normal group and the control group, a 5% aqueous solution of gum arabic is orally administered once a day. […]

Compound	NASH (AST or ALT, inflammatory cytokines or oxidative stress markers, hepatobiopsy) (NASH)	increases of the neutrophil count, TNFα, IL-6, high sensitivity CRP, ferritin, thioredoxin and type IV collagen [1]	increases of the plasma AST and ALT levels [1]	increases of the plasma AST and ALT levels [2]	increases of the type IV collagen, hyaluronic acid and TIMP-1 levels [2]
CC/C=C\C/C=C\C/C=C\C/C=C\C/C=C\CCCC(=O)OCC [EPA-E, EPA ethyl]	amelioration of NASH	suppressed	suppressed	suppressed	suppressed
CCn1ncc2c(-c3cncc(Br)c3)c(C#N)c(C)nc21 [compound 2, 4-(5-bromo-3-pyridyl)-1-ethyl-6-methyl-1H-pyrazolo[3,4-b]pyridine-5-carbonitrile]	–	suppressed	suppressed	–	–
